Measurements reported in the kinase profiling compilation of Christmann-Franck et al. (2016).

Legend:
Test in all cases: SelectScreen, TR FRET
ITK (human) = ITK (human) (UniProt Q08881)
MARK2 (human) = MARK2 (human) (UniProt Q7KZI7)
FLT3 (human) = FLT3 (human) (UniProt P36888)
PDPK1 (human) = PDPK1 (human) (UniProt O15530)
BMX (human) = BMX (human) (UniProt P51813)
PRKCI (human) = PRKCI (human) (UniProt P41743)
TAOK2 (human) = TAOK2 (human) (UniProt Q9UL54)
HCK (human) = HCK (human) (UniProt P08631)
IGF1R (human) = IGF1R (human) (UniProt P08069)
GSK3A (human) = GSK3A (human) (UniProt P49840)
MAP3K8 (human) = MAP3K8 (human) (UniProt P41279)
PTK6 (human) = PTK6 (human) (UniProt Q13882)
ZAP70 (human) = ZAP70 (human) (UniProt P43403)
MAPK9 (human) = MAPK9 (human) (UniProt P45984)
BTK (human) = BTK (human) (UniProt Q06187)
MINK1 (human) = MINK1 (human) (UniProt Q8N4C8)
PRKCZ (human) = PRKCZ (human) (UniProt Q05513)
NEK4 (human) = NEK4 (human) (UniProt P51957)
NUAK1 (human) = NUAK1 (human) (UniProt O60285)
ERBB2 (human) = ERBB2 (human) (UniProt P04626)
SYK (human) = SYK (human) (UniProt P43405)
IKBKE (human) = IKBKE (human) (UniProt Q14164)
FGFR2 (human) = FGFR2 (human) (UniProt P21802)
IRAK1 (human) = IRAK1 (human) (UniProt P51617)
RPS6KA3 KD1 KD2 (human) = RPS6KA3 KD1 KD2 (human) (UniProt P51812)
[1] = target: PRKAA2 PRKAB1 PRKAG1 (human) (UniProt Q9Y478+P54646+P54619); details: compound 0.1 µM
ADRBK1 (human) = ADRBK1 (human) (UniProt P25098)
TBK1 (human) = TBK1 (human) (UniProt Q9UHD2)
Sequence of TBK1 (human) (Q9UHD2 whole entry, looked up): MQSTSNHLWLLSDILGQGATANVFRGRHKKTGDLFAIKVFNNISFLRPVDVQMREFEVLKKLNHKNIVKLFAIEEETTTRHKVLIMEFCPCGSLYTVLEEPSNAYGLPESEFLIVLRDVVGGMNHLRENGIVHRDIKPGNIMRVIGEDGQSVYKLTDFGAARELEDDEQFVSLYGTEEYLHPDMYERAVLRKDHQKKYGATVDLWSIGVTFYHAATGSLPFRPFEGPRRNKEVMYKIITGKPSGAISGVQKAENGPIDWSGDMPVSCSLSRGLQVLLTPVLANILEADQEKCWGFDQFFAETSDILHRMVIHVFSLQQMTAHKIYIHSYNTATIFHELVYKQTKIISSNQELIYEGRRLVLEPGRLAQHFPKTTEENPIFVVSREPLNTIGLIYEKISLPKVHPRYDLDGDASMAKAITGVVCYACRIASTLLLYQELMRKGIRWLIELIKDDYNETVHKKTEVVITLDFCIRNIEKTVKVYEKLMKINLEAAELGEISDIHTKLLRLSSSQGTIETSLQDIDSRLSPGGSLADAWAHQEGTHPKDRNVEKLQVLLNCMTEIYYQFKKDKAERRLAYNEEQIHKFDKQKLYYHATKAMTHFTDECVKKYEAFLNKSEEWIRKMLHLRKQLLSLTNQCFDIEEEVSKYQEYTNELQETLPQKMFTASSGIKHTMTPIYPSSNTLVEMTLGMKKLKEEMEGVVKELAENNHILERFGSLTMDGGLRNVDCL

Sequence of IKBKE (human) (Q14164 whole entry, looked up): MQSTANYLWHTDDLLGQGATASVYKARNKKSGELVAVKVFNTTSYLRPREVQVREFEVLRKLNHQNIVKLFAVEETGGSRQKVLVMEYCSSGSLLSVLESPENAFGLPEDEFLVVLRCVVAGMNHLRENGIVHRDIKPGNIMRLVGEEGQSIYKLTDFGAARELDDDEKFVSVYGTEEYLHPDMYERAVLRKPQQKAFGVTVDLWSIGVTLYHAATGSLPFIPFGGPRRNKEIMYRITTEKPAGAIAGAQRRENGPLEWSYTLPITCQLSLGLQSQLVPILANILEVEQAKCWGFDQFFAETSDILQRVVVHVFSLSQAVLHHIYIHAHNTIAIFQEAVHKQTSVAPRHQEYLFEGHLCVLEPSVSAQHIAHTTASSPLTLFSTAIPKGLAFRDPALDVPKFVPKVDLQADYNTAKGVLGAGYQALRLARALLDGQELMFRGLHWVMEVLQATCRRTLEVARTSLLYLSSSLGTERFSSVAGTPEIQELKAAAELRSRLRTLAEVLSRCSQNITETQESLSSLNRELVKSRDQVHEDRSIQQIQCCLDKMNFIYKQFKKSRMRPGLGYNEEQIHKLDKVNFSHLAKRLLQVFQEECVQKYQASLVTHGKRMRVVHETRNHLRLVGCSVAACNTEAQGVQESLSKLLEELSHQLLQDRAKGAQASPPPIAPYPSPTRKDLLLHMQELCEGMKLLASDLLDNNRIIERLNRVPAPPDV
Sequence of RPS6KA3 KD1 KD2 (human) (P51812 whole entry, looked up): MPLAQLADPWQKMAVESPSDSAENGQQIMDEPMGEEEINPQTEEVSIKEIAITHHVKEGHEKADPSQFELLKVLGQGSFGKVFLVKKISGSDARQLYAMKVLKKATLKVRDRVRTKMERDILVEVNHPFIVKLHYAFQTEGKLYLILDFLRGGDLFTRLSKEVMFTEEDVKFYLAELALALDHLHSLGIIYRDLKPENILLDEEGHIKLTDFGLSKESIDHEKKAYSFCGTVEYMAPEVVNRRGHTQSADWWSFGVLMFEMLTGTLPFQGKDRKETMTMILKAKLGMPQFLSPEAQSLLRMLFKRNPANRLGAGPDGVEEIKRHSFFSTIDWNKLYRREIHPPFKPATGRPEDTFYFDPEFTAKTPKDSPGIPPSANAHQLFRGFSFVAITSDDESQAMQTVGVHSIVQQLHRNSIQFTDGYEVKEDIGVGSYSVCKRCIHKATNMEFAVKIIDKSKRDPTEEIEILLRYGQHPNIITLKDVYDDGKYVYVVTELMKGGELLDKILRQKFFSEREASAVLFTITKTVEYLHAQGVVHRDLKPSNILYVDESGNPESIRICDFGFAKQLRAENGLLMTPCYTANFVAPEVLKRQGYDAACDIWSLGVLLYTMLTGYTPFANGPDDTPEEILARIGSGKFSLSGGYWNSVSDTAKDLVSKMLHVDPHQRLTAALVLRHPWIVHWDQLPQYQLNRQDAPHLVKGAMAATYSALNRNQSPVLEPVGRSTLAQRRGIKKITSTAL
Sequence of MAPK9 (human) (P45984 whole entry, looked up): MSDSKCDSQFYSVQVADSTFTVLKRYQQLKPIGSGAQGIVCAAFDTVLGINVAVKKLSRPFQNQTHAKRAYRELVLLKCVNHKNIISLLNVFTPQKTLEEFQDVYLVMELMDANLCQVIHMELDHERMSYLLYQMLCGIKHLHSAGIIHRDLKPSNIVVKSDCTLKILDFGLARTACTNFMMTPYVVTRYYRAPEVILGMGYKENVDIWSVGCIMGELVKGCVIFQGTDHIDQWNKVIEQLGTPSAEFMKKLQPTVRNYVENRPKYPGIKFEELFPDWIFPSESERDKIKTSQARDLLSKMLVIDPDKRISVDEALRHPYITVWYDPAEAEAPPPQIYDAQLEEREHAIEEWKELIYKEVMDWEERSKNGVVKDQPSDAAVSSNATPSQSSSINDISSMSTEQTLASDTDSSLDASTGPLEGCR
Sequence of BTK (human) (Q06187 whole entry, looked up): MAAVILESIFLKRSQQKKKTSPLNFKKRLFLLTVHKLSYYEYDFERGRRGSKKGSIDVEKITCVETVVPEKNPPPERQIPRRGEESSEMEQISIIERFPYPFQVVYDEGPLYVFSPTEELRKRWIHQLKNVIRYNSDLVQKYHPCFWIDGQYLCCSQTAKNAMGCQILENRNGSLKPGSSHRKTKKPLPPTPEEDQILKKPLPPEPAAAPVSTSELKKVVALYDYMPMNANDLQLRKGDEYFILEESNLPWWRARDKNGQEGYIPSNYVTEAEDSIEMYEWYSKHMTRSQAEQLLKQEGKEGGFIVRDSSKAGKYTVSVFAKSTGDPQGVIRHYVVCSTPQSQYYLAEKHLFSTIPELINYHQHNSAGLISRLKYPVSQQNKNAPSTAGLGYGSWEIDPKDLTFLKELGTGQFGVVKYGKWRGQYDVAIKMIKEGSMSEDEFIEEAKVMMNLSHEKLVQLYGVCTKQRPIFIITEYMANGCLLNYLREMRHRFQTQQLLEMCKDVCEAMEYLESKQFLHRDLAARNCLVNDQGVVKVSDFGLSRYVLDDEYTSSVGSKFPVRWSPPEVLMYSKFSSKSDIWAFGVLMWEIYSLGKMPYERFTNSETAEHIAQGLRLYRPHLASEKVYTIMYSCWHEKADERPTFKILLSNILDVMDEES
Sequence of MAP3K8 (human) (P41279 whole entry, looked up): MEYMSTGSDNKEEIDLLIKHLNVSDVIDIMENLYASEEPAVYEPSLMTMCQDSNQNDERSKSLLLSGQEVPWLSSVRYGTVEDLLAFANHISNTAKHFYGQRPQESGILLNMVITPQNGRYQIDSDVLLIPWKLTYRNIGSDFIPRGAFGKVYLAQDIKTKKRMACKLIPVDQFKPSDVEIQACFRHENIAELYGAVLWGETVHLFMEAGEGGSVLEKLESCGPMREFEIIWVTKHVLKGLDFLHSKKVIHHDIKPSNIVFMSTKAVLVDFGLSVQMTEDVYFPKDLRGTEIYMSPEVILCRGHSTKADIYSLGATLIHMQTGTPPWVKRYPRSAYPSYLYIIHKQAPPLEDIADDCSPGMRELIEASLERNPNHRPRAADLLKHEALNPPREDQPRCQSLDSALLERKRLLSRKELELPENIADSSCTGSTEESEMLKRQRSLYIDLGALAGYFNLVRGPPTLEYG
Sequence of ADRBK1 (human) (P25098 whole entry, looked up): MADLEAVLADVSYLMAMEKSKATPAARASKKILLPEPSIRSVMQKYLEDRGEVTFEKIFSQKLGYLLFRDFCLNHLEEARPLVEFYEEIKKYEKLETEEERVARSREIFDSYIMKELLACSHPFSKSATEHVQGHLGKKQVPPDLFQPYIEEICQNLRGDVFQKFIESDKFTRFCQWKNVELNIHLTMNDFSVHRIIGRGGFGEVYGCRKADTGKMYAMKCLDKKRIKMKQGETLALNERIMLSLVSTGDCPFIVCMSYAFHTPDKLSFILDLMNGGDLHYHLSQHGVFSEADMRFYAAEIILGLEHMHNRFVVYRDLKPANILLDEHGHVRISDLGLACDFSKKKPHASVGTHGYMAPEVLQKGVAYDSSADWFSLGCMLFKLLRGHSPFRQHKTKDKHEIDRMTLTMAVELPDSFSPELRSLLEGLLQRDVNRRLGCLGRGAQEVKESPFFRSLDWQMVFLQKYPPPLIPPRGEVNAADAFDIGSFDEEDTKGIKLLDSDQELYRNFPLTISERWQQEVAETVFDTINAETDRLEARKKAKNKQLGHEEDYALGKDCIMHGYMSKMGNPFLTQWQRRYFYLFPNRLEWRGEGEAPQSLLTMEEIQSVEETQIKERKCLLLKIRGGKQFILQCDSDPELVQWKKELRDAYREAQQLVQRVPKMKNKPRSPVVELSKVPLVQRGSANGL
Sequence of PRKCZ (human) (Q05513 whole entry, looked up): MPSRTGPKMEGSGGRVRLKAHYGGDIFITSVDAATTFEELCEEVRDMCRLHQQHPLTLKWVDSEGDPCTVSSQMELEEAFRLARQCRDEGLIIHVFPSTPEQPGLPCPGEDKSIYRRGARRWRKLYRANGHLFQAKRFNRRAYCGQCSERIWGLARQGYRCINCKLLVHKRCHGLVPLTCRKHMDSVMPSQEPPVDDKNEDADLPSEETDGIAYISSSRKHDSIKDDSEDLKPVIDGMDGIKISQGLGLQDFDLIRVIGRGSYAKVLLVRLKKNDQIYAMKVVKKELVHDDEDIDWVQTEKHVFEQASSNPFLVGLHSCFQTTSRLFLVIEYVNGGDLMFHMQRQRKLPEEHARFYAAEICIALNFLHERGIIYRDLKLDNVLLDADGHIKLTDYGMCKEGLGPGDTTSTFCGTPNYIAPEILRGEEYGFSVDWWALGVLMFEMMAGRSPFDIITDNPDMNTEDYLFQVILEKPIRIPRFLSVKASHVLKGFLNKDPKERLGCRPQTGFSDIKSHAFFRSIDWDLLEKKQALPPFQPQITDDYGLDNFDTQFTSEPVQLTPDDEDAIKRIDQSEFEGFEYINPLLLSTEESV

Work on Cn1cc(-c2cnc3ccc4ccc(CC(=O)NCc5ccccn5)cc4c(=O)c3c2)cn1 yielded an inhibition (ITK (human); compound 0.1 µM) of 1.8%, an inhibition (ITK (human); compound 1.0 µM) of 3.8% and an inhibition (ITK (human); compound 10.0 µM) of 35.8%. The inhibition (MARK2 (human); compound 0.1 µM) was 12.1%, the inhibition (MARK2 (human); compound 1.0 µM) was 14.2% and the inhibition (MARK2 (human); compound 10.0 µM) was 19.7%. For the same compound, the inhibition (FLT3 (human); compound 0.1 µM) was 24.6%, the inhibition (FLT3 (human); compound 1.0 µM) was 59.7% and the inhibition (FLT3 (human); compound 10.0 µM) was 80%. The inhibition (PDPK1 (human); compound 0.1 µM) was 3.3%, the inhibition (PDPK1 (human); compound 1.0 µM) was 9.3% and the inhibition (PDPK1 (human); compound 10.0 µM) was 25.4%. The inhibition (BMX (human); compound 0.1 µM) was 7.2%, the inhibition (BMX (human); compound 1.0 µM) was 7.7% and the inhibition (BMX (human); compound 10.0 µM) was -77.3%. For the same compound, the inhibition (PRKCI (human); compound 0.1 µM) was 10.5%, the inhibition (PRKCI (human); compound 1.0 µM) was 10.2% and the inhibition (PRKCI (human); compound 10.0 µM) was 8.8%. The inhibition (TAOK2 (human); compound 0.1 µM) was 10.9%, the inhibition (TAOK2 (human); compound 1.0 µM) was 7% and the inhibition (TAOK2 (human); compound 10.0 µM) was -17.5%. For the same compound, the inhibition (HCK (human); compound 0.1 µM) was 16.7%, the inhibition (HCK (human); compound 1.0 µM) was 19.1% and the inhibition (HCK (human); compound 10.0 µM) was 51.8%. The inhibition (IGF1R (human); compound 0.1 µM) was 16.4%, the inhibition (IGF1R (human); compound 1.0 µM) was 15.3% and the inhibition (IGF1R (human); compound 10.0 µM) was 16.7%. The inhibition (GSK3A (human); compound 0.1 µM) was 8.6%, the inhibition (GSK3A (human); compound 1.0 µM) was 12.5% and the inhibition (GSK3A (human); compound 10.0 µM) was 65.6%. The inhibition (MAP3K8 (human); compound 0.1 µM) was 28%, the inhibition (MAP3K8 (human); compound 1.0 µM) was 23.4% and the inhibition (MAP3K8 (human); compound 10.0 µM) was 12.9%. For the same compound, the inhibition (PTK6 (human); compound 0.1 µM) was 9.2%, the inhibition (PTK6 (human); compound 1.0 µM) was 12.5% and the inhibition (PTK6 (human); compound 10.0 µM) was 39.1%. It also gave an inhibition (ZAP70 (human); compound 0.1 µM) of 18.4%, an inhibition (ZAP70 (human); compound 1.0 µM) of 17.4% and an inhibition (ZAP70 (human); compound 10.0 µM) of 15.2%. For the same compound, the inhibition (MAPK9 (human); compound 0.1 µM) was -1.5%, the inhibition (MAPK9 (human); compound 1.0 µM) was 3.7% and the inhibition (MAPK9 (human); compound 10.0 µM) was 10.8%. The inhibition (BTK (human); compound 0.1 µM) was 10.9%, the inhibition (BTK (human); compound 1.0 µM) was 13.4% and the inhibition (BTK (human); compound 10.0 µM) was 15.4%. It also gave an inhibition (MINK1 (human); compound 0.1 µM) of 19.9%, an inhibition (MINK1 (human); compound 1.0 µM) of 29.2% and an inhibition (MINK1 (human); compound 10.0 µM) of 71.1%. The inhibition (PRKCZ (human); compound 0.1 µM) was 9.2%, the inhibition (PRKCZ (human); compound 1.0 µM) was 9.9% and the inhibition (PRKCZ (human); compound 10.0 µM) was 6.9%. The inhibition (NEK4 (human); compound 0.1 µM) was 10.8%, the inhibition (NEK4 (human); compound 1.0 µM) was 13.5% and the inhibition (NEK4 (human); compound 10.0 µM) was 37.8%. For the same compound, the inhibition (NUAK1 (human); compound 0.1 µM) was -10.5%, the inhibition (NUAK1 (human); compound 1.0 µM) was 13.6% and the inhibition (NUAK1 (human); compound 10.0 µM) was 63.9%. The inhibition (ERBB2 (human); compound 0.1 µM) was -4.3%, the inhibition (ERBB2 (human); compound 1.0 µM) was 2.2% and the inhibition (ERBB2 (human); compound 10.0 µM) was -10.5%. The inhibition (SYK (human); compound 0.1 µM) was 19.9%, the inhibition (SYK (human); compound 1.0 µM) was 13.2% and the inhibition (SYK (human); compound 10.0 µM) was 61.6%. For the same compound, the inhibition (IKBKE (human); compound 0.1 µM) was 7.5%, the inhibition (IKBKE (human); compound 1.0 µM) was 7% and the inhibition (IKBKE (human); compound 10.0 µM) was 8.6%. The inhibition (FGFR2 (human); compound 0.1 µM) was 14.2%, the inhibition (FGFR2 (human); compound 1.0 µM) was 33.5% and the inhibition (FGFR2 (human); compound 10.0 µM) was 74%. The inhibition (IRAK1 (human); compound 0.1 µM) was 7.1%, the inhibition (IRAK1 (human); compound 1.0 µM) was 27.1% and the inhibition (IRAK1 (human); compound 10.0 µM) was 66.3%. For the same compound, the inhibition (RPS6KA3 KD1 KD2 (human); compound 0.1 µM) was 6.4%, the inhibition (RPS6KA3 KD1 KD2 (human); compound 1.0 µM) was 7.8% and the inhibition (RPS6KA3 KD1 KD2 (human); compound 10.0 µM) was 18.9%. The inhibition [1] was 11.6%, the inhibition (ADRBK1 (human); compound 0.1 µM) was 9.4% and the inhibition (ADRBK1 (human); compound 1.0 µM) was 8.9%. For the same compound, the inhibition (ADRBK1 (human); compound 10.0 µM) was 10.4%, the inhibition (TBK1 (human); compound 0.1 µM) was -1.6% and the inhibition (TBK1 (human); compound 1.0 µM) was 7.8%. It also gave an inhibition (TBK1 (human); compound 10.0 µM) of 33.2%.
